Like-named read-outs stand apart in the source and are kept apart here. One block for each compound: values may come before it.
Columns and labels:
[1] = target: GSK3α (GST-full length GSK3α) (Homo sapiens (Human), UniProt P49840); assay: GSK3α TR-FRET kinase assay; format: biochemical
Outline: (§1)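 Full-length GST-tagged human enzyme (1 nM) is exposed to test compound for 30 min before substrates are added. Phosphorylation of a primed biotinylated glycogen synthase peptide proceeds 100 min at room temperature at low ATP (4 μM α; 2 μM β) or high ATP (1 mM). Product is quantified by TR-FRET.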

[2] = target: GSK3b (GST-full length GSK3b) (Homo sapiens (Human), UniProt P49841); assay: GSK3b TR-FRET kinase assay; format: biochemical
Sequence of GSK3b (GST-full length GSK3b) (P49841 whole entry): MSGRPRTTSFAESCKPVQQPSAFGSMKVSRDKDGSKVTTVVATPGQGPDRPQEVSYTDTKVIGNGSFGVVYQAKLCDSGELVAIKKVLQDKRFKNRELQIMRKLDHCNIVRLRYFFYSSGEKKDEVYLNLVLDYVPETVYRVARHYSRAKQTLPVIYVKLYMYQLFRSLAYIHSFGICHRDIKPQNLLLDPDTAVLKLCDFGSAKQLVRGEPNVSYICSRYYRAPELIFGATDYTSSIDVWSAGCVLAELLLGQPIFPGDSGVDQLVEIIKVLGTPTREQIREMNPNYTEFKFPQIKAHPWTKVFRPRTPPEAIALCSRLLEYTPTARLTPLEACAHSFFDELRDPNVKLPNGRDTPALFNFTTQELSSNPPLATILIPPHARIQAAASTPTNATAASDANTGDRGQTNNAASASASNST
Outline: as §1

[3] = 1 nM GSK3α, 4 μM ATP, 30 minute preincubation, Table 16, read-out: GSK3-A TR-FRET BIOCHEMICAL (TR-FRET)
[4] = 1 nM GSK3b, 2 μM ATP, 30 minute preincubation, Table 16, read-out: GSK3-B TR-FRET BIOCHEMICAL (TR-FRET)
[5] = 1 nM GSK3α, 4 μM ATP, 30 minute preincubation, Table 16, read-out: GSK3-A TR-FRET BIOCHEMICAL (TR-FRET), IC50
[6] = 1 nM GSK3b, 2 μM ATP, 30 minute preincubation, Table 16, read-out: GSK3-B TR-FRET BIOCHEMICAL (TR-FRET), IC50
[7] = 1 nM GSK3α, 4 μM ATP, 30 minute preincubation, read-out: GSK3-A TR-FRET BIOCHEMICAL (TR-FRET), IC50
[8] = GSK3-A (TR-FRET 1 mM ATP), GMean, IC50, 1 mM ATP, geometric mean
[9] = 1 nM GSK3b, 2 μM ATP, 30 minute preincubation, read-out: GSK3-B TR-FRET BIOCHEMICAL (TR-FRET), IC50
[10] = GSK3-B (TR-FRET 1 mM ATP), GMean, IC50, 1 mM ATP, geometric mean
[11] = read-out: GSK3-A (TR-FRET 1 mM ATP), GMean, IC50, 1 mM ATP, geometric mean
[12] = read-out: GSK3-B (TR-FRET 1 mM ATP), GMean, IC50, 1 mM ATP, geometric mean

Sequence of GSK3α (GST-full length GSK3α) (P49840 whole entry): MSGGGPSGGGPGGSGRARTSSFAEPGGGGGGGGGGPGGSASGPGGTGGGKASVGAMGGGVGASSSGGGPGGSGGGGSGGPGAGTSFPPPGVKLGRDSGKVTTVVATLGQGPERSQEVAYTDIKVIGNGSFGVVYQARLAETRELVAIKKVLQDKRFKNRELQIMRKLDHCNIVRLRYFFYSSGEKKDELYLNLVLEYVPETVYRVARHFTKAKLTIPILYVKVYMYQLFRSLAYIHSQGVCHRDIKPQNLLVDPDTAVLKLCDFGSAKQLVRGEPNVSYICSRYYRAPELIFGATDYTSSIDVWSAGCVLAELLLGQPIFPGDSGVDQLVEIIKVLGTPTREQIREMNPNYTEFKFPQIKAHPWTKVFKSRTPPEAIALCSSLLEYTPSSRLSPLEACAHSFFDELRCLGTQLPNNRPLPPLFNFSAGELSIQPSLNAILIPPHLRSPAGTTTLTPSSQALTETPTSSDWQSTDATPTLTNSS

SMILES: CC1(C)CC(=O)C2=C(Nc3n[nH]cc3C23CCN(S(=O)(=O)c2ccccc2C(F)F)CC3)[C@H]1F [Compound 951839]
IC50 [1, 3]: ≤ 100 nM
IC50 [2, 4]: 100 to 1000 nM

SMILES: CC1(C)CC(=O)C2=C(Nc3n[nH]cc3C23CCN(S(=O)(=O)c2ccccc2C(F)F)CC3)[C@@H]1F [Compound 951846]
IC50 [1, 3]: ≤ 100 nM
IC50 [2, 4]: 100 to 1000 nM

SMILES: CC1(C)CC(=O)C2=C(C1)Nc1n[nH]cc1[C@]21CCN(S(=O)(=O)c2cccc(F)c2)C1 [Compound 951861]
IC50 [1, 7]: ≤ 100 nM
IC50 [1, 8]: 100 to 1000 nM
IC50 [2, 9]: ≤ 100 nM
IC50 [2, 10]: 100 to 1000 nM

SMILES: CC1(C)CC(=O)C2=C(C1)Nc1n[nH]cc1[C@@]21CCN(S(=O)(=O)c2cccc(F)c2)C1 [Compound 951862]
IC50 [1, 3]: ≤ 100 nM
IC50 [2, 4]: ≤ 100 nM

SMILES: Cc1cccc(S(=O)(=O)N2CC[C@]3(C2)C2=C(CC(C)(C)CC2=O)Nc2n[nH]cc23)c1 [Compound 951863]
IC50 [1, 7]: ≤ 100 nM
IC50 [1, 8]: 100 to 1000 nM
IC50 [2, 9]: ≤ 100 nM
IC50 [2, 10]: 100 to 1000 nM

SMILES: Cc1cccc(S(=O)(=O)N2CC[C@@]3(C2)C2=C(CC(C)(C)CC2=O)Nc2n[nH]cc23)c1 [Compound 951864]
IC50 [1, 3]: ≤ 100 nM
IC50 [1, 8]: 100 to 1000 nM
IC50 [2, 4]: ≤ 100 nM
IC50 [2, 10]: 1000 to 5000 nM

SMILES: CC[C@@]1(c2cccc(C(F)(F)F)c2)C2=C(CCN(c3cc(C)n(C)n3)C2=O)Nc2n[nH]cc21 [Compound 951939]
IC50 [1, 5]: ≤ 100 nM
IC50 [2, 6]: 100 to 1000 nM

SMILES: CC[C@]1(c2cccc(C(F)(F)F)c2)C2=C(CCN(c3cc(C)n(C)n3)C2=O)Nc2n[nH]cc21 [Compound 951954]
IC50 [1, 5]: > 5000 nM
IC50 [2, 6]: > 5000 nM

SMILES: CCC1(c2cccc(-c3cnn(CCN4CCCC4)c3)c2)C2=C(CC(C)(C)NC2=O)Nc2n[nH]cc21 (centres unmarked) [Compound 952022]
IC50 [1, 5]: 100 to 1000 nM
IC50 [2, 6]: 1000 to 5000 nM

SMILES: CCC1(c2cccc(N(C)c3ncccn3)c2)C2=C(CC(C)(C)C2=O)Nc2n[nH]cc21 (centres unmarked) [Compound 952205]
IC50 [1, 5]: 1000 to 5000 nM
IC50 [2, 6]: > 5000 nM

SMILES: CC[C@@]1(c2cccc(N(C)c3ncccn3)c2)C2=C(CC(C)(C)C2=O)Nc2n[nH]cc21 [Compound 952212]
IC50 [1, 5]: ≤ 100 nM
IC50 [1, 11]: 100 to 1000 nM
IC50 [2, 6]: 100 to 1000 nM
IC50 [2, 12]: > 5000 nM

SMILES: CC[C@]1(c2cccc(C(F)(F)F)c2)C2=C(CCN(c3cnn(C)c3C)C2=O)Nc2n[nH]cc21 [Compound 952257]
IC50 [1, 5]: ≤ 100 nM
IC50 [2, 6]: 100 to 1000 nM

SMILES: CCC1(c2cccc(C(F)(F)F)c2)C2=C(CCN(c3cnn(C)c3C)C2=O)Nc2n[nH]cc21 (centres unmarked) [Compound 952262]
IC50 [1, 5]: > 5000 nM
IC50 [2, 6]: > 5000 nM

SMILES: CC[C@]1(c2cccc(-c3cc(-c4ccccc4)nn3C(C)C)c2)C2=C(CC(C)(C)NC2=O)Nc2n[nH]cc21 [Compound 952411]
IC50 [1, 5]: 1000 to 5000 nM
IC50 [2, 6]: > 5000 nM

SMILES: CC1(C)CC(=O)C2=C(C1)Nc1n[nH]cc1[C@@]21CC[C@H](C(F)(F)F)C1 [Compound 952434]
IC50 [1, 3]: 100 to 1000 nM
IC50 [2, 4]: 100 to 1000 nM

SMILES: CC1(C)CC(=O)C2=C(C1)Nc1n[nH]cc1[C@]21CC[C@H](C(F)(F)F)C1 [Compound 952435]
IC50 [1, 3]: ≤ 100 nM
IC50 [2, 4]: 100 to 1000 nM

SMILES: CC1(C)CC(=O)C2=C(C1)Nc1n[nH]cc1[C@@]21CC[C@@H](C(F)(F)F)C1 [Compound 952436]
IC50 [1, 3]: ≤ 100 nM
IC50 [1, 8]: 1000 to 5000 nM
IC50 [2, 4]: ≤ 100 nM
IC50 [2, 10]: 1000 to 5000 nM

SMILES: CC1(C)CC(=O)C2=C(C1)Nc1n[nH]cc1[C@]21CC[C@@H](C(F)(F)F)C1 [Compound 952437]
IC50 [1, 3]: 100 to 1000 nM
IC50 [2, 4]: 100 to 1000 nM

SMILES: CC[C@@]1(c2cccc(C(F)(F)F)c2)C2=C(CCN(c3cn(C)c(C)n3)C2=O)Nc2n[nH]cc21 [Compound 952478]
IC50 [1, 5]: 1000 to 5000 nM
IC50 [2, 6]: > 5000 nM

SMILES: CC[C@]1(c2cccc(C(F)(F)F)c2)C2=C(CCN(c3cn(C)c(C)n3)C2=O)Nc2n[nH]cc21 [Compound 952479]
IC50 [1, 5]: > 5000 nM
IC50 [2, 6]: > 5000 nM

SMILES: CCC1(c2cccc(-c3ccnc4c3CCC4)c2)C2=C(CC(C)(C)C2=O)Nc2n[nH]cc21 (centres unmarked) [Compound 952557]
IC50 [1, 5]: ≤ 100 nM
IC50 [2, 6]: 100 to 1000 nM

Other lines, results leading:

IC50 [1, 5]: 100 to 1000 nM
IC50 [2, 6]: 1000 to 5000 nM
SMILES: CCC1(c2cccc(-c3cc(C(C)C)nn3C)c2)C2=C(CC(C)(C)NC2=O)Nc2n[nH]cc21 (centres unmarked) [Compound 951842]

IC50 [1, 5]: 100 to 1000 nM
IC50 [2, 6]: > 5000 nM
SMILES: CC[C@]1(c2cccc(-c3cc(C(C)(C)C)nn3C)c2)C2=C(CC(C)(C)NC2=O)Nc2n[nH]cc21 [Compound 951843]

IC50 [1, 5]: ≤ 100 nM
IC50 [2, 6]: 100 to 1000 nM
SMILES: CC[C@]1(c2cccc(-c3c(C#N)c(C)nn3C)c2)C2=C(CC(C)(C)NC2=O)Nc2n[nH]cc21 [Compound 951844]

IC50 [1, 5]: 100 to 1000 nM
IC50 [2, 6]: 100 to 1000 nM
SMILES: CC[C@@]1(c2cccc(-c3cc(C)nn3-c3ccccc3)c2)C2=C(CC(C)(C)NC2=O)Nc2n[nH]cc21 [Compound 951845]

IC50 [1, 5]: ≤ 100 nM
IC50 [2, 6]: 100 to 1000 nM
SMILES: CC[C@]1(c2cccc(-c3cnn(Cc4cccc(C(F)(F)F)c4)c3)c2)C2=C(CC(C)(C)NC2=O)Nc2n[nH]cc21 [Compound 951848]

IC50 [1, 5]: ≤ 100 nM
IC50 [2, 6]: 100 to 1000 nM
SMILES: CCC1(c2cccc(-c3cnn(Cc4ccc(C(F)(F)F)cc4)c3)c2)C2=C(CC(C)(C)NC2=O)Nc2n[nH]cc21 (centres unmarked) [Compound 951849]

IC50 [1, 5]: 100 to 1000 nM
IC50 [2, 6]: 1000 to 5000 nM
SMILES: CC[C@]1(c2cccc(C(F)F)c2)C2=C(CC(C)(C)NC2=O)Nc2n[nH]c(C(F)(F)F)c21 [Compound 951946]

IC50 [1, 5]: ≤ 100 nM
IC50 [1, 11]: ≤ 100 nM
IC50 [2, 6]: ≤ 100 nM
IC50 [2, 12]: 100 to 1000 nM
SMILES: CCC1(c2cccc(C(F)F)c2)C2=C(CC(C)(C)NC2=O)Nc2n[nH]c(C(F)(F)F)c21 (centres unmarked) [Compound 951948]

IC50 [1, 5]: 100 to 1000 nM
IC50 [2, 6]: 1000 to 5000 nM
SMILES: CC[C@]1(c2cccc(-c3cnn(-c4ccncn4)c3)c2)C2=C(CC(C)(C)NC2=O)Nc2n[nH]cc21 [Compound 952016]

IC50 [1, 5]: 100 to 1000 nM
IC50 [2, 6]: 1000 to 5000 nM
SMILES: CC[C@]1(c2cccc(-c3cc(C(F)(F)F)nn3C)c2)C2=C(CC(C)(C)NC2=O)Nc2n[nH]cc21 [Compound 952018]

IC50 [1, 5]: ≤ 100 nM
IC50 [2, 6]: 100 to 1000 nM
SMILES: CC[C@]1(c2cccc(-c3cnn4c3OCCC4)c2)C2=C(CC(C)(C)NC2=O)Nc2n[nH]cc21 [Compound 952019]

IC50 [1, 5]: ≤ 100 nM
IC50 [1, 11]: 100 to 1000 nM
IC50 [2, 6]: ≤ 100 nM
IC50 [2, 12]: > 5000 nM
SMILES: CC[C@]1(c2cccc(-c3c(C)cnn3C)c2)C2=C(CC(C)(C)NC2=O)Nc2n[nH]cc21 [Compound 952021]

IC50 [1, 5]: 100 to 1000 nM
IC50 [2, 6]: 1000 to 5000 nM
SMILES: CCC1(c2cccc(-c3cc(C4CCCC4)nn3C)c2)C2=C(CC(C)(C)NC2=O)Nc2n[nH]cc21 (centres unmarked) [Compound 952023]

IC50 [1, 5]: 100 to 1000 nM
IC50 [2, 6]: > 5000 nM
SMILES: CC[C@]1(c2cccc(-c3cnn(-c4cccnc4)c3)c2)C2=C(CC(C)(C)NC2=O)Nc2n[nH]cc21 [Compound 952024]

IC50 [1, 5]: ≤ 100 nM
IC50 [1, 11]: ≤ 100 nM
IC50 [2, 6]: ≤ 100 nM
IC50 [2, 12]: 1000 to 5000 nM
SMILES: CC[C@]1(c2cccc(-c3ccncc3C(F)(F)F)c2)C2=C(CC(C)(C)NC2=O)Nc2n[nH]cc21 [Compound 952025]

IC50 [1, 5]: 100 to 1000 nM
IC50 [2, 6]: 1000 to 5000 nM
SMILES: CCC1(c2cccc(-c3cnn(-c4cnccn4)c3)c2)C2=C(CC(C)(C)NC2=O)Nc2n[nH]cc21 (centres unmarked) [Compound 952207]

IC50 [1, 5]: 100 to 1000 nM
IC50 [2, 6]: > 5000 nM
SMILES: CC[C@]1(c2cccc(-c3cnn(CC(=O)N(C)C)c3)c2)C2=C(CC(C)(C)NC2=O)Nc2n[nH]cc21 [Compound 952208]

IC50 [1, 5]: ≤ 100 nM
IC50 [2, 6]: 100 to 1000 nM
SMILES: CCC1(c2cccc(-c3cnn(CC#N)c3)c2)C2=C(CC(C)(C)NC2=O)Nc2n[nH]cc21 (centres unmarked) [Compound 952210]

IC50 [1, 5]: ≤ 100 nM
IC50 [1, 11]: 100 to 1000 nM
IC50 [2, 6]: ≤ 100 nM
IC50 [2, 12]: 1000 to 5000 nM
SMILES: CC[C@]1(c2cccc(-c3c(C#N)cnn3C)c2)C2=C(CC(C)(C)NC2=O)Nc2n[nH]c(C)c21 [Compound 952410]
